In publication PMC10611828 (European Journal of Nuclear Medicine and Molecular Imaging, 2023):

Experiments:
[1] = design: method as in PMID 35027371, PMID 28644732; conditions: compared with RM2; cited from earlier work
[2] = Stability in PBS at 37 °C (radio-HPLC); type: physicochemical
Protocol: (§1) The ^177Lu-labeled peptides were incubated in 300-μL phosphate buffered saline (PBS; Gibco, ThermoFisher, The Netherlands) at 37 °C, and their stability was verified after 1, 4, 24, 48, and 72 h by radio-HPLC (Supplementary Fig. 2). The stability in serum was determined by incubating the radiolabeled compounds into 300 μL of mouse serum (Invitrogen, USA) or human serum (Sigma Aldrich, USA) at 37 °C (Supplementary Fig. 3, 4). At each time point post-incubation, 35 μL of the mixture was added to an Eppendorf tube, and the proteins were precipitated by adding an equal volume of acetonitrile. The tubes were centrifuged at 16,000 rpm, 4 °C for 20 min, and the stability was monitored by radio-HPLC, expressed as the RCP at the different time points.

[3] = Stability in human serum at 37 °C (radio-HPLC); type: in vitro ADME; conditions: 0 h
Protocol: as §1

[4] = design: method as in PMID 31482426; conditions: all patients; cited from earlier work
[5] = Stability in mouse serum at 37 °C (radio-HPLC); type: in vitro ADME; conditions: 0 h
Protocol: as §1

[6] = test system: PC-3 cells; assay: Uptake and specificity in PC-3 cells; type: cell-based, human; conditions: 1 h 37 °C
Protocol: PC-3 cells were seeded at 2.5 × 10^5 cells/well into 12 well plates 18–24 h prior to the experiment. […] Hereafter, cells were washed twice with PBS and subsequently lysed with 0.1 M NaOH for 20 min at room temperature (RT). The cell lysates were collected and measured using a gamma counter (1480 WIZARD automatic γ-counter, PerkinElmer, The Netherlands). […] Hereafter, cells were washed twice with cold PBS and lysed with 0.1 M NaOH for 20 min at RT. The cell lysates were collected and measured to determine the amount of radioactivity in a gamma counter. To correct for cell density, cells from two separate wells were counted (Countess counter, Invitrogen, The Netherlands), and data was expressed as percentage of added dose (AD) per 2.5 × 10^5 cells.

Structure (SMILES) | lipophilicity (structure and LogD) [1] | intact radiolabeled ligand (RCP) ([2]; 0 h) | intact radiolabeled ligand (RCP) ([2]; 1 h) | intact radiolabeled ligand (RCP) ([2]; 4 h) | intact radiolabeled ligand (RCP) ([2]; 24 h) | intact radiolabeled ligand (RCP) ([2]; 48 h) | intact radiolabeled ligand (RCP) ([2]; 72 h) | intact radiolabeled ligand (RCP) [3] | tolerability in patients [4] | intact radiolabeled ligand (RCP) [5] | uptake in the presence of Tyr^4-BBN ([6]; 10^-9 M + 10^-6 M Tyr^4-BBN) | uptake ([6]; 10^-9 M, per 2.5 × 10^5 cells)
CC(C)CC(CC(C)C)NC(=O)[C@H](Cc1cnc[nH]1)NC(=O)CNC(=O)[C@@H](NC(=O)[C@H](C)NC(=O)[C@H](Cc1c[nH]c2ccccc12)NC(=O)[C@H](CCC(N)=O)NC(=O)[C@@H](Cc1ccccc1)NC(=O)COCC(=O)Nc1ccc(CNC(=O)CN2CCN(CC(=O)O)CCN(CC(=O)O)CCN(CC(=O)O)CC2)cc1)C(C)C [NeoB, DOTA-pADA-D-Phe-Gln-Trp-Ala-Val-Gly-His-NH-CH[CH2-CH(CH3)2]2] | more lipophilic | – | – | – | – | – | – | – | – | – | – | –
CC(C)C[C@H](NC(=O)C[C@H](O)[C@H](CC(C)C)NC(=O)[C@H](Cc1c[nH]cn1)NC(=O)CNC(=O)[C@@H](NC(=O)[C@H](C)NC(=O)[C@H](Cc1c[nH]c2ccccc12)NC(=O)[C@H](CCC(N)=O)NC(=O)[C@@H](Cc1ccccc1)NC(=O)CN1CCC(NC(=O)CN2CCN(CC(=O)O)CCN(CC(=O)O)CCN(CC(=O)O)CC2)CC1)C(C)C)C(N)=O [[^177Lu]Lu-RM2] [metal not drawn] | – | 97.4 ± 0.3% | 97.8 ± 0.4% | 96.7 ± 0.5% | 95.6 ± 0.3% | 87.6 ± 0.6% | 80.4 ± 0.8% | 97.4 ± 0.3% | well tolerated | 97.4 ± 0.3% | < 1 % AD | 10.96 ± 3.46 % AD
